According to patent US12351570B2 (MERCK PATENT GMBH, priority 2018, dated 2025):
pIC50: −log10 of the molar value.

Tested on: MDA-MB-231 cells
Experiment: Extracellular lactate production inhibition after 4 h, MDA-MB-231
Conditions: Homo sapiens, MDA-MB-231
Protocol: Extracellular Lactate Production Inhibition after 4 h
Cells were plated in growth media supplemented with 10% FBS, followed by overnight recovery at 37° C., 5% CO2. […] Plates were then moved for 4 h incubation at 37° C., 5% CO2 with subsequent 20 μl media transfer to empty 384-well transparent plates. […] Plates were short-spun and measured kinetically in absorbance mode (530 nm, 12 min measurement time with 2-minute intervals between subsequent readouts at 30° C.). Differences in the signal between T8 min and T0min were normalized to vehicle (cells w/ 0.25% DMSO) and quasi-positive (LCIS buffer w/ 0.25% DMSO) controls and plotted against logarithmically-transformed test compound concentrations with fitting the 4-parameter model in GraphPad Prism software.

Row | Compound | pIC50
1 | Cc1cc(C#Cc2cc(F)ccc2NS(=O)(=O)c2ccc3c(c2)oc2ccccc23)cnc1C(=O)O [Compound 309, 5-[2-(5-fluoro-2-{8-oxatricyclo[7.4.0.0^2,7]trideca-1(9),2(7),3,5,10,12-hexaene-5-sulfonamido}phenyl)ethynyl]-3-methylpyridine-2-carboxylic acid] | 6.00 to 7.00
2 | CCOc1cc(C#Cc2ccccc2NS(=O)(=O)c2ccc3ccccc3c2)ccc1C(=O)O [Compound 57, 2-ethoxy-4-{2-[2-(naphthalene-2-sulfonamido)phenyl]ethynyl}benzoic acid] | 4.00 to 6.00
3 | COc1ccc(S(=O)(=O)Nc2ccc(F)cc2C#Cc2ccc(C(=O)O)nc2)c2ccccc12 [Compound 37, 5-{2-[5-fluoro-2-(4-methoxynaphthalene-1-sulfonamido)phenyl]ethynyl}pyridine-2-carboxylic acid] | 6.00 to 7.00
4 | Cc1c(S(=O)(=O)Nc2ccccc2C#Cc2ccc(C(=O)O)nc2)ccc2ccccc12 [Compound 97, 5-{2-[2-(1-methylnaphthalene-2-sulfonamido)phenyl]ethynyl}pyridine-2-carboxylic acid] | 6.00 to 7.00
5 | O=C(O)c1ccc(C#Cc2ccccc2NS(=O)(=O)c2cccc3ncccc23)cc1 [Compound 35, 4-{2-[2-(quinoline-5-sulfonamido)phenyl]ethynyl}benzoic acid] | 4.00 to 6.00
6 | COc1cc(C(=O)O)ncc1C#Cc1cc(Cl)ccc1NS(=O)(=O)c1ccc(OC)c2cccnc12 [Compound 360, 5-{2-[5-chloro-2-(5-methoxyquinoline-8-sulfonamido)phenyl]ethynyl}-4-methoxypyridine-2-carboxylic acid] | 8.00 to 9.00
7 | Cc1cc(C#Cc2ccccc2NS(=O)(=O)c2ccc3ccccc3c2)cnc1C(=O)O [Compound 49, 3-methyl-5-{2-[2-(naphthalene-2-sulfonamido)phenyl]ethynyl}pyridine-2-carboxylic acid] | 6.00 to 7.00
8 | COc1ccc(S(=O)(=O)Nc2cc(F)c(Br)cc2C#Cc2ccc(C(=O)O)nc2)c2ncccc12 [Compound 325, 5-{2-[5-bromo-4-fluoro-2-(5-methoxy-quinoline-8-sulfonamido)phenyl]-ethynyl}pyridine-2-carboxylic acid] | 8.00 to 9.00
9 | COc1ccc(S(=O)(=O)Nc2ccc(Br)cc2C#Cc2cnc(C(=O)O)c3ccccc23)c(C)c1C [Compound 398, 4-{2-[5-bromo-2-(4-methoxy-2,3-dimethylbenzenesulfonamido)phenyl]ethynyl}isoquinoline-1-carboxylic acid] | 7.00 to 8.00
10 | Cc1cc(C(=O)O)ncc1C#Cc1ccccc1NS(=O)(=O)c1ccc2c(c1)Cc1ccccc1-2 [Compound 119, 5-{2-[2-(9H-fluorene-2-sulfonamido)phenyl]ethynyl}-4-methylpyridine-2-carboxylic acid] | 6.00 to 7.00
11 | O=C(O)c1ccc(C#Cc2ccccc2NS(=O)(=O)c2cccc3c2OCCO3)cc1 [Compound 254, 4-[2-(2,3-Dihydro-benzo[1,4]dioxine-5-sulfonylamino)-phenylethynyl]-benzoic acid] | 4.00 to 6.00
12 | Cc1ccc2cccnc2c1S(=O)(=O)Nc1ccccc1C#Cc1ccc(C(=O)OCCOCCO)nc1 [Compound 409, 2-(2-hydroxyethoxy)ethyl 5-{2-[2-(7-methylquinoline-8-sulfonamido)phenyl]ethynyl}pyridine-2-carboxylate] | 6.00 to 7.00
13 | COc1ccc(S(=O)(=O)Nc2cc(Cl)c(Cl)cc2C#Cc2ccc(C(=O)O)nc2)c2ncccc12 [Compound 190, 5-{2-[4,5-dichloro-2-(5-methoxyquinoline-8-sulfonamido)phenyl]ethynyl}pyridine-2-carboxylic acid] | 7.00 to 8.00
14 | O=C(O)c1ccc(C#Cc2ccccc2NS(=O)(=O)c2cccc(-c3ccccc3)c2)cn1 [Compound 96, 5-[2-(2-{[1,1′-biphenyl]-3-sulfonamido}phenyl)ethynyl]pyridine-2-carboxylic acid] | 6.00 to 7.00
15 | Cc1cc(C(=O)O)ncc1C#Cc1ccccc1NS(=O)(=O)c1cccc2cccnc12 [Compound 61, 4-methyl-5-{2-[2-(quinoline-8-sulfonamido)phenyl]ethynyl}pyridine-2-carboxylic acid] | 6.00 to 7.00
16 | CCOc1cc(C(=O)O)ncc1C#Cc1ccccc1NS(=O)(=O)c1ccc(OC)c2cccnc12 [Compound 176, 4-ethoxy-5-{2-[2-(5-methoxyquinoline-8-sulfonamido)phenyl]ethynyl}pyridine-2-carboxylic acid] | 7.00 to 8.00
17 | COc1ccc(S(=O)(=O)Nc2ccccc2C#Cc2ccc(C(=O)NO)nc2)c2ncccc12 [Compound 216, N-hydroxy-5-{2-[2-(5-methoxyquinoline-8-sulfonamido)phenyl]ethynyl}pyridine-2-carboxamide] | 6.00 to 7.00
18 | COc1ccc(S(=O)(=O)Nc2ccccc2C#Cc2ccc(C(=O)N3CCCC3)nc2)c2ncccc12 [Compound 386, 5-Methoxy-quinoline-8-sulfonic acid {2-[6-(pyrrolidine-1-carbonyl)-pyridin-3-ylethynyl]-phenyl}-amide] | 4.00 to 6.00
19 | COC(=O)c1ncc(C#Cc2cc(F)ccc2NS(=O)(=O)c2ccc3c(c2)oc2ccccc23)cc1C [Compound 318, methyl 5-[2-(5-fluoro-2-{8-oxatricyclo[7.4.0.0^2,7]trideca-1(9),2(7),3,5,10,12-hexaene-5-sulfonamido}phenyl)ethynyl]-3-methylpyridine-2-carboxylate] | 4.00 to 6.00

Row | Compound | pIC50
20 | CC(C)COc1ccc(-c2ccc(S(=O)(=O)Nc3ccccc3C#Cc3ccc(C(=O)O)nc3)cc2)cc1 [Compound 174, 5-(2-{2-[4′-(2-methylpropoxy)-[1,1′-biphenyl]-4-sulfonamido]phenyl}-ethynyl)pyridine-2-carboxylic acid] | 4.00 to 6.00
21 | COc1cc(C#Cc2ccccc2NS(=O)(=O)c2cccc3ccccc23)ccc1C(=O)O [Compound 62, 2-methoxy-4-{2-[2-(naphthalene-1-sulfonamido)phenyl]ethynyl}benzoic acid] | 6.00 to 7.00
22 | O=C(O)c1ccc(C#Cc2ccccc2NS(=O)(=O)c2cccc3c(Cl)cccc23)cn1 [Compound 289, 5-{2-[2-(5-chloronaphthalene-1-sulfonamido)phenyl]ethynyl}pyridine-2-carboxylic acid] | 6.00 to 7.00
23 | COc1ccc(S(=O)(=O)Nc2ccccc2C#Cc2ccc(C(=O)O)cc2)c(Cl)c1Cl [Compound 23, 4-{2-[2-(2,3-dichloro-4-methoxybenzenesulfonamido)phenyl]-ethynyl}benzoic acid] | 6.00 to 7.00
24 | O=C(O)c1ccc(C#Cc2ccccc2NS(=O)(=O)c2c(Cl)ccc3c(Cl)ccnc23)cn1 [Compound 302, 5-{2-[2-(4,7-dichloroquinoline-8-sulfonamido)phenyl]ethynyl}pyridine-2-carboxylic acid] | 7.00 to 8.00
25 | O=C(O)c1ccc(C#Cc2ccccc2NS(=O)(=O)c2ccccc2-c2ccccc2)cn1 [Compound 141, 5-[2-(2-{[1,1′-biphenyl]-2-sulfonamido}phenyl)ethynyl]pyridine-2-carboxylic acid] | 6.00 to 7.00
26 | O=C(O)c1ccc(C#Cc2ccccc2NS(=O)(=O)c2cccc3ncc(Cl)cc23)cc1 [Compound 272, 4-[2-(3-Chloro-quinoline-5-sulfonyl-amino)-phenylethynyl]-benzoic acid] | 4.00 to 6.00
27 | O=C(O)c1ccc(C#Cc2ccc(C(F)(F)F)cc2NS(=O)(=O)c2ccc3ccccc3c2)cc1 [Compound 17, 4-{2-[2-(naphthalene-2-sulfonamido)-4-(trifluoromethyl)phenyl]ethynyl}benzoic acid] | 6.00 to 7.00
28 | CNc1cc(C#Cc2ccccc2NS(=O)(=O)c2c(C)ccc3cccnc23)cnc1C(=O)O [Compound 206, 3-(methylamino)-5-{2-[2-(7-methylquinoline-8-sulfonamido)phenyl]-ethynyl}pyridine-2-carboxylic acid] | 8.00 to 9.00
29 | Cc1cc(S(=O)(=O)Nc2ccccc2C#Cc2ccc(C(=O)O)nc2)c2cc(C)ncc2c1 [Compound 288, 5-{2-[2-(3,7-dimethylisoquinoline-5-sulfonamido)phenyl]ethynyl}pyridine-2-carboxylic acid] | 4.00 to 6.00
30 | CCCc1ccc(S(=O)(=O)Nc2ccccc2C#Cc2ccc(C(=O)O)nc2)c2ncccc12 [Compound 414, 5-{2-[2-(5-propylquinoline-8-sulfonamido)phenyl]ethynyl}pyridine-2-carboxylic acid] | 7.00 to 8.00
31 | COC(=O)c1ccc(C#Cc2ccccc2N(Cc2ccc3ccccc3c2)C(N)=O)cn1 [Compound 140, methyl 5-[2-(2-{carbamoyl[(naphthalen-2-yl)methyl]amino}phenyl)ethynyl]pyridine-2-carboxylate] | 6.00 to 7.00
32 | COc1ccc2cccnc2c1S(=O)(=O)Nc1ccccc1C#Cc1ccc(C(=O)O)nc1 [Compound 347, 5-{2-[2-(7-methoxyquinoline-8-sulfonamido)phenyl]ethynyl}pyridine-2-carboxylic acid] | 6.00 to 7.00
33 | CCOc1ccc2cccnc2c1S(=O)(=O)Nc1ccccc1C#Cc1ccc(C(=O)O)nc1 [Compound 210, 5-{2-[2-(7-ethoxyquinoline-8-sulfonamido)phenyl]ethynyl}pyridine-2-carboxylic acid] | 7.00 to 8.00
34 | Cc1cc(C(=O)O)ncc1C#Cc1ccccc1NS(=O)(=O)c1cccc2ccccc12 [Compound 88, 4-methyl-5-{2-[2-(naphthalene-1-sulfonamido)phenyl]ethynyl}pyridine-2-carboxylic acid] | 6.00 to 7.00
35 | O=C(O)c1ccc(C#Cc2ccccc2NS(=O)(=O)c2cnc(Cl)c(Br)c2)cc1 [Compound 34, 4-{2-[2-(5-bromo-6-chloropyridine-3-sulfonamido)phenyl]ethynyl}benzoic acid] | 4.00 to 6.00
36 | O=CN(Cc1cccc2cccnc12)c1ccccc1C#Cc1ccc(C(=O)O)nc1 [Compound 178, 5-[2-(2-{N-[(quinolin-8-yl)methyl]formamido}phenyl)ethynyl] pyridine-2-carboxylic acid] | 6.00 to 7.00
37 | O=C(O)c1ccc(C#Cc2ccccc2NS(=O)(=O)c2ccc(-c3ccccc3)cc2)cc1 [Compound 153, 4-[2-(2-{[1,1′-biphenyl]-4-sulfonamido}phenyl)ethynyl]benzoic acid] | 6.00 to 7.00
38 | COc1ccccc1-c1ccc(CN(C=O)c2ccccc2C#Cc2ccc(C(=O)O)nc2)cc1 [Compound 191, 5-(2-{2-[N-({2′-methoxy-[1,1′-biphenyl]-4-yl}methyl)formamido]phenyl}ethynyl)-pyridine-2-carboxylic acid] | 7.00 to 8.00
